Measurements published in EP0187355A1, “Process for preparing beta-lactam antibiotics” (E.R. Squibb & Sons, Inc., priority 1981, dated 1982).
Counter-ions that a name gives are not always drawn. Like-named read-outs stand apart in the source and are kept apart here.

What was measured:
Test in all cases: MIC, agar dilution
Type in all cases: cell-based
Salmonella typhosa, 1195 = details: Salmonella enterica, TYPHOSA, 18 h, K-10 agar, 10^4 CFU, 37°C
Method: (§1) The following methodology is used to determine the minimum inhibitory concentration (hereinafter referred to as MIC) of the […] of this invention.
(§2) The test organisms are grown in approximately 15-20 ml of Antibiotic Assay broth (Difco) by inoculating (in tubes) the broth with a loopful of the organism from a BHI (Difco) agar slant. The inoculated tubes are incubated at 37°C for 18 to 20 hours. These cultures are assumed to contain 10^9 colony forming units (hereinafter CFU) per milliliter. The cultures are diluted 1:100 to give a final inoculum level of 10^4 CFU; dilutions are made with K-10 broth^*.
(§3) The compounds are dissolved in the appropriate diluent at a concentration of 1000 µg/ml. Twofold dilutions are made in K-10 broth resulting in a range from 1000 µg/ml to 0.5 µg/ml. 1.5 ml of each dilution is placed into individual square petri dishes to which 13.5 ml of K-10 agar^** is added. The final drug concentration in the agar ranges from 100 µg/ml to 0.05 µg/ml. Organism growth control plates containing agar only are prepared and inoculated before and after the test plates. The organisms are applied to the agar surface of each plate with the Denley Multipoint Inoculator (which delivers approximately 0.001 ml of each organism) resulting in a final inoculum level of 10^4 CFU on the agar surface.
(§4) The plates are incubated at 37 °C for 18 hours and the MIC's are determined. The MIC is the lowest concentration of compound inhibiting growth of the organism.
(§5) The tables that follow are tabulated results obtained when the B-lactams of this invention are tested against various organisms. The number following each organism refers to the number of the organism in the collection of E. R. Squibb & Sons,.Inc., Princeton, New Jersey. […] The symbol "N.T." means not tested.

Escherichia coli, 10909 = details: K-10 agar, 10^4 CFU, 37°C, 18 hours
Method: as §1, §2, §3, §4, §5

[1] = system: Serratia marcescens, 9783; details: Serratia marcescens, 9783, 18 h, K-10 agar, 10^4 CFU, 37°C
Method: as §1, §2, §3, §4, §5

Escherichia coli, 10857 = details: Escherichia coli, 10857, 18 h, K-10 agar, 10^4 CFU, 37°C
Method: as §1, §2, §3, §4, §5

Proteus rettgeri, 8479 = details: K-10 agar, 10^4 CFU, 37°C
Method: as §1, §2, §3, §4, §5

[2] = system: Staphylococcus aureus, 2399; details: Staphylococcus aureus, 2399, 18 h
Method: as §1, §2, §3, §4, §5

Proteus mirabilis, 3855 = details: Proteus mirabilis, 3855, 18 h, K-10 agar, 10^4 CFU, 37°C
Method: as §1, §2, §3, §4, §5

[3] = system: Klebsiella aerogenes, 10440; details: K-10 agar, 10^4 CFU, 37°C
Method: as §1, §2, §3, §4, §5

[4] = system: Enterobacter aerogenes, 10078; details: Klebsiella aerogenes, 10078, 18 h
Method: as §1, §2, §3, §4, §5

[5] = system: Acinetobacter calcoaceticus, 8333; details: Acinetobacter calcoaceticus, 8333, 18 h, K-10 agar, 10^4 CFU, 37°C
Method: as §1, §2, §3, §4, §5

[6] = system: Pseudomonas aeruginosa, 8329; details: K-10 agar, 10^4 CFU, 37°C
Method: as §1, §2, §3, §4, §5

[7] = system: Pseudomonas aeruginosa, 9545; details: Pseudomonas aeruginosa, 9545, 18 h, K-10 agar, 10^4 CFU, 37°C
Method: as §1, §2, §3, §4, §5

[8] = system: Staphylococcus aureus, 10165
Method: as §1, §2, §3, §4, §5

[9] = system: Klebsiella pneumoniae, 9527; details: Klebsiella pneumoniae, 9527, 18 h, K-10 agar, 10^4 CFU, 37°C
Method: as §1, §2, §3, §4, §5

Shigella sonnei, 8449 = details: K-10 agar, 10^4 CFU, 37°C
Method: as §1, §2, §3, §4, §5

Escherichia coli, 8294 = details: Escherichia coli, 8294, 18 h, K-10 agar, 10^4 CFU, 37°C
Method: as §1, §2, §3, §4, §5

[10] = system: Staphylococcus aureus, 1276
Method: as §1, §2, §3, §4, §5

[11] = system: Staphylococcus aureus, 2400
Method: as §1, §2, §3, §4, §5

[12] = system: Streptococcus faecalis, 9011
Method: as §1, §2, §3, §4, §5

Escherichia coli, 10896 = details: K-10 agar, 10^4 CFU, 37°C, 18 hours
Method: as §1, §2, §3, §4, §5

Proteus vulgaris, 9416 = details: K-10 agar, 10^4 CFU, 37°C
Method: as §1, §2, §3, §4, §5

[13] = system: Citrobacter freundii, 9518; details: K-10 agar, 10^4 CFU, 37°C
Method: as §1, §2, §3, §4, §5

[14] = system: Streptococcus agalactiae, 9287; details: K-10 agar, 10^4 CFU, 37°C
Method: as §1, §2, §3
(§6) The MIC is the lowest concentration of compound inhibiting growth of the organism.
(§7) The number following each organism refers to the number of the organism in the collection of E. R. Squibb & Sons,.Inc., Princeton, New Jersey. […] The symbol "N.T." means not tested.

Micrococcus luteus, 2495 = details: Micrococcus luteus, 2495, 18 h, K-10 agar, 10^4 CFU, 37°C
Method: as §1, §2, §3, §6, §7

[15] = system: Enterobacter cloacae, 8236; details: Enterobacter cloacae, 8236, 18 h, K-10 agar, 10^4 CFU, 37°C
Method: as §1, §2, §3, §6, §7

C[C@@H]1[C@H](NC(=O)/C(=N\OC(C)(C)C(=O)O)c2csc(N)n2)C(=O)N1S(=O)(=O)O [Example 16, [3α(Z),4α]-3-[[(2-Amino-4-thiazolyl) [(1-carboxy-1-methylethoxy)imino]acetyl]amino]-4-methyl-2-oxo-l-azetidinesulfonic acid, potassium salt (1:2)] showed an MIC (Salmonella typhosa, 1195) of under 0.05 µg/mL, an MIC (Escherichia coli, 10909) of under 0.05 µg/mL and an MIC [1] of 0.4 µg/mL. It also gave an MIC (Escherichia coli, 10857) of 0.2 µg/mL, an MIC (Proteus rettgeri, 8479; Providencia rettgeri, 8479, 18 h) of under 0.05 µg/mL and an MIC [2] of over 100 µg/mL. It also gave an MIC (Proteus mirabilis, 3855) of under 0.05 µg/mL, an MIC ([3]; Klebsiella aerogenes, 10440, 18 h) of 0.8 µg/mL and an MIC [4] of 0.8 µg/mL. The MIC [5] was 50 µg/mL, the MIC ([6]; Pseudomonas aeruginosa, 8329, 18 h) was 3.1 µg/mL and the MIC [7] was 0.8 µg/mL. For the same compound, the MIC ([8]; Staphylococcus aureus, 10165, 18 h) was over 100 µg/mL, the MIC [9] was 0.1 µg/mL and the M.I.C. (Shigella sonnei, 8449; 18 hours) was 0.4 µg/mL. It also gave an MIC (Escherichia coli, 8294) of 0.4 µg/mL, an MIC ([10]; Staphylococcus aureus, 1276, 18 h) of over 100 µg/mL and an MIC ([11]; Staphylococcus aureus, 2400, 18 h) of over 100 µg/mL. The MIC ([12]; Enterococcus faecalis, 9011, 18 h) was over 100 µg/mL, the MIC (Escherichia coli, 10896) was 0.2 µg/mL and the MIC (Proteus vulgaris, 9416; Proteus vulgaris, 9416, 18 h) was under 0.05 µg/mL. The MIC ([13]; Citrobacter freundii, 9518, 18 h) was 0.8 µg/mL, the M.I.C. ([14]; 18 hours) was 50 µg/mL and the MIC (Micrococcus luteus, 2495) was 25 µg/mL.
CC1C(NC(=O)C(=NO)c2csc(N)n2)C(=O)N1S(=O)(=O)O (stereo not drawn) [Example 13, [3S-[3α(Z),4β]]-3-[[(2-amino-4-thiazolyl)-(hydroxyimino)acetyl]amino]-4-methyl-2-oxo-1-azetidinesulfonic acid, potassium salt] showed an MIC (Salmonella typhosa, 1195) of 0.8 µg/mL, an MIC (Escherichia coli, 10909) of 0.8 µg/mL and an MIC ([1]; read-out: M.I.C.) of 0.8 µg/mL. It also gave an MIC (Escherichia coli, 10857) of 1.6 µg/mL, an MIC (Proteus rettgeri, 8479; Providencia rettgeri, 18 hours, read-out: M.I.C.) of 0.1 µg/mL and an MIC (Proteus mirabilis, 3855; read-out: M.I.C.) of 1.6 µg/mL. It also gave an MIC ([3]; 18 hours, read-out: M.I.C.) of 1.6 µg/mL, an MIC ([4]; Enterobacter aerogenes, 10078, K-10 agar, 10^4 CFU, 37°C, 18 hours, read-out: M.I.C.) of 3.1 µg/mL and an MIC ([5]; read-out: M.I.C.) of 12.5 µg/mL. It also gave an MIC ([6]; 18 hours, read-out: M.I.C.) of over 100 µg/mL, an MIC ([7]; read-out: M.I.C.) of 6.3 µg/mL and an MIC ([8]; Staphylococcus aureus, 10165, K-10 agar, 10^4 CFU, 37°C, 18 hours, read-out: M.I.C.) of 25 µg/mL. For the same compound, the MIC ([9]; read-out: M.I.C.) was 1.6 µg/mL, the MIC (Shigella sonnei, 8449; Shigella sonnei, 8449, 18 h) was 1.6 µg/mL and the MIC (Escherichia coli, 8294) was 1.6 µg/mL. For the same compound, the MIC ([10]; Staphylococcus aureus, 1276, K-10 agar, 10^4 CFU, 37°C, 18 hours, read-out: M.I.C.) was 25 µg/mL, the MIC ([11]; Staphylococcus aureus, 2400, K-10 agar, 10^4 CFU, 37°C, 18 hours, read-out: M.I.C.) was 12.5 µg/mL and the MIC ([12]; Enterococcus faecalis, Streptococcus faecalis, 9011, K-10 agar, 10^4 CFU, 37°C, 18 hours, read-out: M.I.C.) was over 100 µg/mL. The MIC (Escherichia coli, 10896) was 1.6 µg/mL, the MIC (Proteus vulgaris, 9416; 18 hours, read-out: M.I.C.) was 0.8 µg/mL and the MIC ([13]; 18 hours, read-out: M.I.C.) was 0.8 µg/mL. For the same compound, the MIC [15] was 1.6 µg/mL, the MIC ([14]; Streptococcus agalactiae, 9287, 18 h, read-out: M.I.C.) was 25 µg/mL and the MIC (Micrococcus luteus, 2495; read-out: M.I.C.) was 3.1 µg/mL.
